Target: T1, human PAR-1 (Homo sapiens, UniProt P25116)
T1 construct: expressed in transfected cells; host or cells: CHO-K1 (transformant flag/trn/CHO-K1)
T1 sequence (P25116 22-425): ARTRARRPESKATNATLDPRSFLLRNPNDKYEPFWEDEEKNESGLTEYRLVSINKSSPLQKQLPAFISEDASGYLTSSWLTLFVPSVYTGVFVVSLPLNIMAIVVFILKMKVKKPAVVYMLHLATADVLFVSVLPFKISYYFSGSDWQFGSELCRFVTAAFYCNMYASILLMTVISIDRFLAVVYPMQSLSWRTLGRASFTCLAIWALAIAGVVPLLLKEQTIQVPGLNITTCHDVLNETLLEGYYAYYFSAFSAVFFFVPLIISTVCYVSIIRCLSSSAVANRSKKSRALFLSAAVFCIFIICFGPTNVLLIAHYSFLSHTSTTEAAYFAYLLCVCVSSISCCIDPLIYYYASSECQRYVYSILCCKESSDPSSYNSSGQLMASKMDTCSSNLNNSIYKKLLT
Assay: Evaluation of PAR-1 antagonistic action by intracellular calcium concentration variation assay (FLIPR)
Assay type: cell-based
Conditions: human PAR-1-expressing CHO cells, agonist peptide SFLLRN-NH2 final concentration 0.3 nM, Fluo-3AM
Description: Evaluation of PAR-1 Antagonistic Action of Compound by Intracellular Calcium Concentration Variation Assay
Human PAR-1-expressing cells was plated at 3×10^4 cells/well on a 96 well clear bottom plate (Corning 3904 type) and cultured for 16-24 hr. The medium was removed from the wells of the plate, measurement buffer (50 μL, 115 mM NaCl, 5.4 mM KCl, 1.8 mM CaCl2, 0.8 mM MgCl2, 13.8 mM D-glucose, 0.1% BSA, 20 mM HEPES, pH 7.4) containing 2.5 μg/mL of Fluo-3AM (manufactured by Dojindo Laboratories), 0.08% Pluronic F-127 and 2.5 mM Probenecid was added to the cells and the mixture was reacted at 37° C. for 1 hr. The cells were washed twice with the measurement buffer. After addition of the measurement buffer (100 μL), a measurement buffer (50 μL) containing a test compound was added, and the mixture was stood still for 10 min. The plate was moved to a fluorometry image-plate reader (FLIPR-1, manufactured by Molecular Devices). […] The intracellular calcium concentration was measured by FLIPR.

| Structure (SMILES) | IC50 |
| --- | --- |
| CCCc1c(C(=O)N2CCc3c([nH]c4ccccc34)C2)nnn1-c1ccc(C(=O)NCC)cc1 [Example 85, N-ethyl-4-[5-propyl-4-(1,3,4,9-tetrahydro-2H-β-carbolin-2-ylcarbonyl)-1H-1,2,3-triazol-1-yl]benzamide] | 1900 nM |
| CCCc1c(C(=O)NC2CC2)nnn1-c1ccc(NC(=O)COC)cc1 [Example 19, N-cyclopropyl-1-{4-[(methoxyacetyl)amino]phenyl}-5-propyl-1H-1,2,3-triazole-4-carboxamide] | 750 nM |
| CCCc1c(C(=O)NC2CCCc3ccccc32)nnn1-c1ccc(C(=O)NCC)cc1 (centres unmarked) [Example 89, 1-{4-[(ethylamino)carbonyl]phenyl}-5-propyl-N-(1,2,3,4-tetrahydronaphthalen-1-yl)-1H-1,2,3-triazole-4-carboxamide] | 670 nM |
| CCNC(=O)c1ccc(-n2nnc(C(=O)NC3CC3)c2CCCOc2ccc(OC(F)(F)F)cc2)cc1 [Example 522, N-cyclopropyl-1-{4-[(ethylamino)carbonyl]phenyl}-5-{3-[4-(trifluoromethoxy)phenoxy]propyl}-1H-1,2,3-triazole-4-carboxamide] | 330 nM |
| CCNC(=O)c1ccc(-n2nnc(C(=O)NC3CC3)c2COc2cccc(Cl)n2)cc1 [Example 118, 5-{[(6-chloropyridin-2-yl)oxy]methyl}-N-cyclopropyl-1-{4-[(ethylamino)carbonyl]phenyl}-1H-1,2,3-triazole-4-carboxamide] | 1400 nM |
| CCCc1c(C(=O)NCCc2c[nH]c3ccc(OC)cc23)nnn1-c1ccc(C(=O)NCC)cc1 [Example 87, 1-{4-[(ethylamino)carbonyl]phenyl}-N-[2-(5-methoxy-1H-indol-3-yl)ethyl]-5-propyl-1H-1,2,3-triazole-4-carboxamide] | 280 nM |
| CCCc1c(C(=O)NCc2ccc3c(c2)OCO3)nnn1-c1ccc(C(=O)NCC)cc1 [Example 86, N-(1,3-benzodioxol-5-ylmethyl)-1-{4-[(ethylamino)carbonyl]phenyl}-5-propyl-1H-1,2,3-triazole-4-carboxamide] | 620 nM |
| CCNC(=O)c1ccc(-n2nnc(C(=O)NC3CC3)c2COc2ccc(OC)cc2)cc1 [Example 122, N-cyclopropyl-1-{4-[(ethylamino)carbonyl]phenyl}-5-[(4-methoxyphenoxy)methyl]-1H-1,2,3-triazole-4-carboxamide] | 3300 nM |
| CCNC(=O)c1ccc(-n2nnc(C(=O)NC3CC3)c2CCC(C)C)cc1 [Example 97, N-cyclopropyl-1-{4-[(ethylamino)carbonyl]phenyl}-5-(3-methylbutyl)-1H-1,2,3-triazole-4-carboxamide] | 1600 nM |
| CCCCc1c(C(=O)NC2CC2)nnn1-c1ccc(C(=O)NCC)cc1 [Example 90, 5-butyl-N-cyclopropyl-1-{4-[(ethylamino)carbonyl]phenyl}-1H-1,2,3-triazole-4-carboxamide] | 2400 nM |
| CCCc1c(C(=O)NC2CC2)nnn1-c1ccc(C(=O)NCC(C)C)cc1 [Example 52, N-cyclopropyl-1-{4-[(isobutylamino)carbonyl]phenyl}-5-propyl-1H-1,2,3-triazole-4-carboxamide] | 1400 nM |
| CCCc1c(C(=O)NC2CC2)nnn1-c1ccc(C(=O)NCC(F)(F)F)cc1 [Example 46, N-cyclopropyl-5-propyl-1-(4-{[(2,2,2-trifluoroethyl)amino]carbonyl}phenyl)-1H-1,2,3-triazole-4-carboxamide] | 950 nM |
| CCNC(=O)c1ccc(-n2nnc(C(=O)NC3CC3)c2COc2ccc(Br)cc2)cc1 [Example 116, 5-[(4-bromophenoxy)methyl]-N-cyclopropyl-1-{4-[(ethylamino)carbonyl]phenyl}-1H-1,2,3-triazole-4-carboxamide] | 750 nM |
| CCCc1c(C(=O)NC2CC2)nnn1-c1ccc(C(=O)NC2CCCC2)cc1 [Example 54, 1-{4-[(cyclopentylamino)carbonyl]phenyl}-N-cyclopropyl-5-propyl-1H-1,2,3-triazole-4-carboxamide] | 1600 nM |
| CCNC(=O)c1ccc(-n2nnc(C(=O)NC3CC3)c2CCc2ccccc2)cc1 [Example 98, N-cyclopropyl-1-{4-[(ethylamino)carbonyl]phenyl}-5-(2-phenylethyl)-1H-1,2,3-triazole-4-carboxamide] | 500 nM |
| CCCc1c(C(=O)NC2CC2)nnn1-c1ccc(NC(=O)NC)cc1 [Example 31, N-cyclopropyl-1-(4-{[(methylamino)carbonyl]amino}phenyl)-5-propyl-1H-1,2,3-triazole-4-carboxamide] | 3700 nM |

| Structure (SMILES) | IC50 |
| --- | --- |
| CCNC(=O)c1ccc(-n2nnc(C(=O)NC3CC3)c2CCCCF)cc1 [Example 108, N-cyclopropyl-1-{4-[(ethylamino)carbonyl]phenyl}-5-(4-fluorobutyl)-1H-1,2,3-triazole-4-carboxamide] | 620 nM |
| CCNC(=O)c1ccc(-n2nnc(C(=O)NC3CC3)c2CCCF)cc1 [Example 109, N-cyclopropyl-1-{4-[(ethylamino)carbonyl]phenyl}-5-(3-fluoropropyl)-1H-1,2,3-triazole-4-carboxamide] | 3400 nM |
| CCCc1c(C(=O)NC2CC2)nnn1-c1ccc(NC(=O)C2CC2)cc1 [Example 4, N-cyclopropyl-1-{4-[(cyclopropylcarbonyl)amino]phenyl}-5-propyl-1H-1,2,3-triazole-4-carboxamide] | 550 nM |
| CCNC(=O)c1ccc(-n2nnc(C(=O)NC3CC3)c2COCc2ccccc2)cc1 [Example 94, 5-[(benzyloxy)methyl]-N-cyclopropyl-1-{4-[(ethylamino)carbonyl]phenyl}-1H-1,2,3-triazole-4-carboxamide] | 1700 nM |
| CCNC(=O)c1ccc(-n2nnc(C(=O)NC3CC3)c2COc2ccc(F)cc2)cc1 [Example 123, N-cyclopropyl-1-{4-[(ethylamino)carbonyl]phenyl}-5-[(4-fluorophenoxy)methyl]-1H-1,2,3-triazole-4-carboxamide] | 980 nM |
| CCCc1c(C(=O)NC2CC2)nnn1-c1ccc(C(=O)NC(C)C)cc1 [Example 49, N-cyclopropyl-1-{4-[(isopropylamino)carbonyl]phenyl}-5-propyl-1H-1,2,3-triazole-4-carboxamide] | 3500 nM |
| CCCc1c(C(=O)NC2CC2)nnn1-c1ccc(NC(=O)CC(F)(F)F)cc1 [Example 25, N-cyclopropyl-5-propyl-1-{4-[(3,3,3-trifluoropropanoyl)amino]phenyl}-1H-1,2,3-triazole-4-carboxamide] | 94 nM |
| CCCc1c(C(=O)NCC2CCCO2)nnn1-c1ccc(C(=O)NCC)cc1 (centres unmarked) [Example 82, 1-{4-[(ethylamino)carbonyl]phenyl}-5-propyl-N-(tetrahydrofuran-2-ylmethyl)-1H-1,2,3-triazole-4-carboxamide] | 1900 nM |
| CCCc1c(C(=O)NC2CC2)nnn1-c1ccc(NC(=O)C(C)C)cc1 [Example 3, N-cyclopropyl-1-[4-(isobutyrylamino)phenyl]-5-propyl-1H-1,2,3-triazole-4-carboxamide] | 520 nM |
| CCCc1c(C(=O)NC2CC2)nnn1-c1ccc(C(=O)NCC)cc1Cl [Example 72, 1-{2-chloro-4-[(ethylamino)carbonyl]phenyl}-N-cyclopropyl-5-propyl-1H-1,2,3-triazole-4-carboxamide] | 3400 nM |
| CCNC(=O)c1ccc(-n2nnc(C(=O)NC3CC3)c2CC2CCCCC2)cc1 [Example 102, 5-(cyclohexylmethyl)-N-cyclopropyl-1-{4-[(ethylamino)carbonyl]phenyl}-1H-1,2,3-triazole-4-carboxamide] | 1800 nM |
| CCCc1c(C(=O)NC2CC2)nnn1-c1ccc(NC(=O)C(F)(F)F)cc1 [Example 16, N-cyclopropyl-5-propyl-1-{4-[(trifluoroacetyl)amino]phenyl}-1H-1,2,3-triazole-4-carboxamide] | 250 nM |
| CCCc1c(C(=O)NC2CC2)nnn1-c1ccc(C(=O)NC2CC2)cc1 [Example 53, N-cyclopropyl-1-{4-[(cyclopropylamino)carbonyl]phenyl}-5-propyl-1H-1,2,3-triazole-4-carboxamide] | 3400 nM |
| CCNC(=O)c1ccc(-n2nnc(C(=O)NC3CC3)c2-c2ccccc2)cc1 [Example 105, N-cyclopropyl-1-{4-[(ethylamino)carbonyl]phenyl}-5-phenyl-1H-1,2,3-triazole-4-carboxamide] | 2700 nM |
| CCNC(=O)c1ccc(-n2nnc(C(=O)NC3CC3)c2CCCOCc2ccccc2)cc1 [Example 91, 5-[3-(benzyloxy)propyl]-N-cyclopropyl-1-{4-[(ethylamino)carbonyl]phenyl}-1H-1,2,3-triazole-4-carboxamide] | 2200 nM |
| CCNC(=O)c1ccc(-n2nnc(C(=O)NC3CC3)c2CC2CCCC2)cc1 [Example 103, 5-(cyclopentylmethyl)-N-cyclopropyl-1-{4-[(ethylamino)carbonyl]phenyl}-1H-1,2,3-triazole-4-carboxamide] | 780 nM |

Source: patent publication US7803822B2, “Triazole derivative and use thereof” (Takeda Pharmaceutical Company Limited, priority 2005, dated 2010)
